Experimental data reported in US9527066B2, “Dihydroxybipyridine complexes of ruthenium and iridium for water oxidation and hydrogenation” (The Board of Trustees of The University of Alabama, priority 2011, dated 2016).
Like-named read-outs stand apart in the source and are kept apart here.

What was measured:
[1] = Hydrogenation of acetophenone, comparison of five catalysts; conditions: 0.02 mmole catalyst, 85-90° C., 24 hours unless x=18, y=20, z=21 hours
Description: Five catalysts were used to catalyze hydrogenation of acetophenone. The first four are represented by the following structures:
These catalysts are represented as 1-4 in Table 4. The last catalyst is [(η^6-p-cymene)RuCl2]2. The reaction mixture contained 0.02 mmole catalyst, 10 mmole of NaO2CH or 2 mmole of KOH, 0.667 mmole of 1,3,4-trimethoxybenzene as internal standard, and 10 mL solvent. The reaction was carried out under N2 at 85-90° C. for 24 hours unless otherwise stated (x=18 hours, y=20 hours, z=21 hours). The percentage conversion was determined by ^1H-NMR as an average of two trials.

[2] = UV-Vis titration, Na2HPO4/HCl buffers pH 2.5-9.2; simultaneous removal of both ligand protons
Description: Approximately 100 mL of 0.1M Na2HPO4 was put into a beaker and stirred and the pH was recorded. 2 mL of 0.0000034M catalyst was put into 10 mL volumetric flasks (final concentration of Ir complex is 6.8 μM). 100 mL of 0.1M Na2HPO4 was titrated with 0.1M HCl until it reached the desired buffer pH (every 0.5 pH unit). At each desired buffer pH, 8 mL of the solution was put into the volumetric flasks. pH's used were as follows: 9.2, 8.0, 7.5, 7.0, 6.5, 6.0, 5.5, 5.0, 4.5, 4.0, 3.5, 3.0, 2.5. […] UV/Vis spectra for each solution were obtained (FIG. 5).

[3] = for TOF / TON: 5 μM catalyst, 20 mM NaIO4 in 180 mM NaOAc; for Enhancement as pH change from 3 to 6: ratio pH 6 to pH 3
Description: Catalysts of the formula Cp*IrCl(n,n′-DHBP)]Cl according to the present invention were used for water oxidation at a variety of different pH levels. These catalysts were the same catalysts as the first three catalysts used in Example 6.5 μM catalyst with 20 mM NaIO4 in 180 mM NaOAc were employed.

[4] = 5 μM catalyst; for 10 min: TOF / 10 min: TON / TOF: 20 mM NaIO4, pH 5.6, 25° C.; for TOF / Initial Rate: first 30 sec; for Initial Rate: 20 mM NaIO4, pH 5.6 NaOAc buffer, 25° C.
Description: Catalysts were used for water oxidation with NaIO4 as an oxidant.
20 mM of NaIO4 was added. The pH was 5.6 and NaOAc was used as a buffer. The vessel and catalyst solution were maintained at 25° C.

[5] = Hydrogenation of imines with H2 in THF; conditions: substrate N-benzylidene-methylamine
Description: (§1) [drawing 11] was used for hydrogenation of several different organic substrates. For ketones, the reaction was carried out by mixing 1 mole % of catalyst, 10:90 of MeOH:water and NaO2CH, and heated to reflux for 16-18 hours. For imines, the reaction was carried out by mixing 1 mole % of catalyst, THF, NEt3 base (5 molar %) and 75 psi H2(g), with heating to reflux for 48 hours. The catalyst provided a very high percentage conversion for ketones in water.

[6] = Hydrogenation of ketones with NaO2CH in MeOH:water; conditions: for % conversion: 1 mole % catalyst, 10:90 MeOH:water, NaO2CH, reflux 16-18 hours
Description: as §1

[7] = Water oxidation with sodium periodate, Clark electrode
Text: Chem. Soc., 2010, vol. 132, pp. 16017-16029:

[8] = 17 mM NaIO4 as oxidant, 25° C.
Description: Rates were most linear from 30 to 240 seconds. […] In this analysis, the slope corresponds to reaction order in Ir catalyst.

[9] = 5 μM catalyst
Description: A catalyst according to the present invention [Cp*Ir^III(DHBP)Cl]Cl was used for water oxidation with cerium (IV) ammonium nitrate (CAN) as the oxidant. The reaction progress was monitored by a Clark electrode to measure the increase in dissolved oxygen with time in a sealed vessel. For longer reaction times, the amount of oxygen that builds up in the headspace is significant and was measured by pressure transducers. In the first set of experiments, the concentration of catalyst was 5 μM and CAN=67 mM at pH=6.0. […] A prior art catalyst, catalyst 15(Cat 15 in FIG. 4, “Cat 15+67 mM CAN”) was used as a comparison. The prior art Cat 15 is represented by the formula taken from Blakemore, et al., “Half-sandwich iridium complexes for homogeneous water-oxidation catalysis,” J. Am. Chem. Soc., 2010, vol. 132, pp. 16017-16029:
In a second set of experiments, the concentration of catalyst was 5 μM. Cat5 was used in a buffered aqueous solution at pH 5.6 with 17 mM sodium periodate as the oxidant, as shown in green in FIG. 4.

[10] = Hydrogenation of acetophenone under various conditions; conditions: 90° C., 16-17 hours
Description: [drawing 12] was used to catalyze hydrogenation of acetophenone under various conditions. For each mole of the substrate, 5 moles of a base is used. The reaction is carried out at 90° C. for 16-17 hours.

[11] = first 30 seconds of reaction, 5 μM catalyst, 78 mM CAN, 25° C.
[12] = first 10 minutes of reaction, 5 μM catalyst, 78 mM CAN, 25° C.
[13] = substrate 2-methoxy-acetophenone
[14] = substrate 4-methoxy-acetophenone
[15] = 5 μM catalyst, pH 5.6 buffered, 17 mM sodium periodate

## Cc1ccc(C(C)C)cc1.Cc1ccc(C(C)C)cc1.[Cl][Ru][Cl].[Cl][Ru][Cl] [[p-cymRuCl2]2, [(η^6-p-cymene)RuCl2]2]
[1]; KOH, ^1PrOH
  % conversion: 100%
[1]; NaO2CH, 10/90 MeOH/H2O
  % conversion: 15%
[1]; NaO2CH, 50/50 MeOH/H2O
  % conversion: 13%
[1]; NaO2CH, H2O
  % conversion: 13%

## Cc1c(C)c(C)[c-](C)c1C.Oc1ccnc(-c2cc(O)ccn2)c1.[Cl-].[Cl-].[Ir+3] [[Cp*IrCl(4,4′-DHBP)]Cl, [Cp*Ir(4,4′-dhbp)Cl]Cl]
[2]
  pKa: 4.4±0.2
[3]; pH = 3 for 10 minutes
  TOF: 0 min⁻¹
  TON: 0
[3]; pH = 6 for 10 minutes
  TOF: 14 min⁻¹
  TON: 124
[3]
  Enhancement as pH change from 3 to 6: >124X
[11]
  Initial Rate: 81.25 ± 12 μmole O2 L^−1 min^−1
  TOF: 16.33 ± 12 min⁻¹
[12]
  TOF: 4.33 min⁻¹
  TON: 43.34
[4]
  10 min: TOF: 11.87 min⁻¹
  10 min: TON: 118.70
  TOF: 21.35 ± 3 min⁻¹
  Initial Rate: 106.25 ± 3 μM O2 min^−1

## Cc1ccc(C(C)C)cc1.Oc1cccc(-c2cccc(O)n2)n1.[Cl-].[Cl][Ru+] [drawing 11]
[5]
  Turnover frequency: 0.63 h⁻¹
  Turnover number: 30
[5]; 1 mole % catalyst, THF, NEt3, 75 psi H2, reflux 48 hours
  % conversion: 30%
[6]; [13]
  Turnover frequency: 8.83 h⁻¹
  Turnover number: 53
  % conversion: 53%
[6]; substrate 2′-acetonaphtone
  Turnover frequency: 13.50 h⁻¹
  Turnover number: 81
  % conversion: 81%
[6]; substrate 4-bromo-acetophenone
  Turnover frequency: 16.17 h⁻¹
  Turnover number: 97
  % conversion: 97%
[6]; [14]
  Turnover frequency: 10.71 h⁻¹
  Turnover number: 65
  % conversion: 65%
[6]; substrate acetophenone
  Turnover frequency: 16.17 h⁻¹
  Turnover number: 97
  % conversion: 97%

## Cc1c(C)c(C)[c-](C)c1C.Oc1cccc(-c2cccc(O)n2)n1.[Cl-].[Cl][Ir+2] [[Cp*IrCl(6,6′-DHBP)]Cl, [Cp*Ir(6,6′-DHBP)Cl]Cl]
[2]
  pKa: 4.6±0.1
[3]; pH = 3 for 10 minutes
  TOF: 0.14 min⁻¹
  TON: 1.3
[3]; pH = 6 for 10 minutes
  TOF: 14 min⁻¹
  TON: 120
[3]
  Enhancement as pH change from 3 to 6: 92X
[7]; [15]
  TOF: 6.3 min⁻¹
  initial rate of oxygen generation: 31 µM/min
[7]; at higher NaIO4 concentrations
  TOF: 18 min⁻¹
[7]; at higher NaIO4 concentrations, in 5 mM (so in the source)
  TON: 84
[7]; in 5 min, 5 μM catalyst, pH 5.6, 17 mM sodium periodate
  TON: 36
[8]
  slope of ln(rate) vs. ln([catalyst]) (reaction order in Ir catalyst): 0.94
[11]
  Initial Rate: 75.00 ± 15 μmole O2 L^−1 min^−1
  TOF: 15.07 ± 15 min⁻¹
[12]
  TOF: 3.89 min⁻¹
  TON: 38.93
[9]; CAN=17 mM
  water oxidation (in words): does not oxidize water appreciably
[9]; CAN=67 mM, pH=6.0
  TOF: 6.4 min⁻¹
  initial rate of oxygen evolution: 31 µM/min
[9]; in 5 min, CAN=67 mM, pH=6.0
  TON: 14
[4]
  10 min: TOF: 9.99 min⁻¹
  10 min: TON: 99.86
  TOF: 10.04 ± 3 min⁻¹
  Initial Rate: 50 ± 3 μM O2 min^−1

## Cc1c(C)c(C)[c-](C)c1C.[Cl-].[Cl-].[Ir+3].c1ccc(-c2ccccn2)nc1 [[Cp*IrCl(bipy)]Cl, reference compound]
As stated in text of Example 5
  Initial Rate: 72±3 mole O2 L^−1 s^−1
  turnover frequency (TOF): 14.4±0.7
[4]
  10 min: TOF: 0.064 min⁻¹
  10 min: TON: 0.64
  TOF: 0 ± 3 min⁻¹
  Initial Rate: 0 ± 3 μM O2 min^−1

## Cc1c(C)c(C)[c-](C)c1C.[Cl-].[Cl][Ir+2].c1ccc(-c2ccccn2)nc1 [Cat15, reference compound]
[7]; 5 μM catalyst, pH 5.6, 17 mM oxidant ("under these conditions")
  activity in water oxidation (in words): not active

## Cc1ccc(C(C)C)cc1.Oc1cccc(-c2cccc(O)n2)n1.[Cl-].[Cl][Ru+] [drawing 12]
[10]; 1 mole % catalyst, NaO2CH, 10/90 MeOH/H2O
  % conversion: 97%
[10]; 1 mole % catalyst, NaO2CH, 50/50 MeOH/H2O
  % conversion: 96%
[10]; 1 mole % catalyst, NaO2CH, H2O
  % conversion: 31%
[10]; 5 mole % catalyst, NaO2CH, H2O
  % conversion: 89%
[10]; 5 mole % catalyst, NaO2CH/HO2CH, H2O
  % conversion: 89%
